Measured values reported in ChEMBL document CHEMBL1121631, “Quantitative structure-activity relationships by distance geometry: systematic analysis of dihydrofolate reductase inhibitors” (J Med Chem, 1980).

Test system: Dihydrofolate reductase (Enterococcus faecium)

Structure (SMILES)	Delta G [kcal]
CCOC(=O)c1ccc(NCc2ccc3nc(N)nc(O)c3c2)cc1	-10.6
O=c1[nH]c(=O)c2cc(Sc3ccc4ccccc4c3)ccc2[nH]1	-6.9
CCOC(=O)c1ccc(NCc2ccc3nc(N)nc(N)c3c2)cc1	-11.4
Cc1c(CNc2ccc(C(=O)O)cc2)ccc2nc(N)nc(N)c12	-11.8
Nc1nc(N)c2cc(Sc3cccc(C(F)(F)F)c3)ccc2n1	-13.4
CCOC(=O)c1ccc(CNc2ccc3nc(N)nc(N)c3c2C)cc1	-13.1
Cc1c(CNc2ccc(C(=O)NC(CC(=O)O)C(=O)O)cc2)ccc2nc(N)nc(N)c12 (stereo not drawn)	-12.7
CCCCOC(=O)c1ccc(NCc2ccc3nc(N)nc(N)c3c2Cl)cc1	-11.4
Nc1nc(N)c2c(S(=O)(=O)c3ccc(Cl)c(Cl)c3)cccc2n1	-9
CCCCOC(=O)c1ccc(NCc2ccc3nc(N)nc(N)c3c2C)cc1	-12.1
Cc1c(NCc2ccc(C(=O)O)cc2)ccc2nc(N)nc(O)c12	-6.5
Nc1nc(N)c2cc(Sc3ccc(Cl)c(Cl)c3)ccc2n1	-12.2
CCOC(=O)c1ccc(CNc2ccc3nc(N)nc(O)c3c2C)cc1	-7.1
CCCCOC(=O)c1ccc(NCc2ccc3nc(N)nc(N)c3c2)cc1	-11.2
CCOC(=O)c1ccc(NCc2ccc3nc(N)nc(N)c3c2C)cc1	-12.3
Nc1nc(N)c2cc(S(=O)(=O)c3ccc(Cl)c(Cl)c3)ccc2n1	-13.4
CCOC(=O)c1ccc(CNc2ccc3nc(N)nc(N)c3c2)cc1	-11
CCOC(=O)c1ccc(NCc2ccc3nc(N)nc(N)c3c2Cl)cc1	-12.8
CCOC(=O)c1ccc(CNc2ccc3nc(N)nc(O)c3c2Cl)cc1	-9.3
Nc1nc(N)c2c(CSc3ccc(Cl)cc3)cccc2n1	-10.9
CCOC(=O)c1ccc(CNc2ccc3nc(N)nc(O)c3c2)cc1	-8.6
Nc1nc(N)c2c(Cl)c(CNc3ccc(C(=O)O)cc3)ccc2n1	-12.3
Nc1nc(N)c2cc(CNc3ccc(C(=O)O)cc3)ccc2n1	-13
Nc1nc(N)c2c(Sc3ccc(Cl)c(Cl)c3)cccc2n1	-9.9
O=c1[nH]c(=S)c2cc(Sc3ccc4ccccc4c3)ccc2[nH]1	-6.9
CCOC(=O)c1ccc(CNc2ccc3nc(N)nc(N)c3c2Cl)cc1	-12.2

Now from value to compound:

Delta G [kcal]	Structure (SMILES)
-6.5	Nc1nc(N)c2c(S(=O)(=O)c3ccc4ccccc4c3)cccc2n1
-9	Nc1nc(O)c2c(S(=O)(=O)c3ccc4ccccc4c3)cccc2n1
-10.2	Nc1nc(O)c2cc(Sc3ccc4ccccc4c3)ccc2n1
-11.9	Nc1nc(N)c2c(CCc3ccc4ccccc4c3)cccc2n1
-8.8	Nc1nc(O)c2cc(CNc3ccc(C(=O)O)cc3)ccc2n1
-8.2	Nc1nc(O)c2cc(S(=O)(=O)c3ccc(Cl)c(Cl)c3)ccc2n1
-9.6	Nc1nc(O)c2cc(S(=O)(=O)c3ccc4ccccc4c3)ccc2n1
-8	Nc1nc(S)c2cc(S(=O)(=O)c3ccc4ccccc4c3)ccc2n1
-7.2	Nc1nc(O)c2cc(NCc3ccc(C(=O)O)cc3)ccc2n1
-7.4	Nc1nc(S)nc2ccc(Sc3ccc4ccccc4c3)cc12
-12.8	Nc1nc(N)c2cc([S+]([O-])c3ccc4ccccc4c3)ccc2n1 (stereo not drawn)
-6.5	Nc1ncnc2ccc(Sc3ccc4ccccc4c3)cc12
-9.1	Nc1nc(O)c2cc(Sc3ccc(Cl)c(Cl)c3)ccc2n1
-7.3	Nc1nc(N)c2c([S+]([O-])c3ccc(Cl)c(Cl)c3)cccc2n1 (stereo not drawn)
-6.9	Nc1nc(N)c2c([S+]([O-])c3ccc4ccccc4c3)cccc2n1 (stereo not drawn)
-11.1	Nc1nc(N)c2c(/C=C\c3ccc4ccccc4c3)cccc2n1
-10.7	Nc1nc(N)c2c(/C=C/c3ccc4ccccc4c3)cccc2n1
-8.2	Nc1nc(O)c2cc([S+]([O-])c3ccc4ccccc4c3)ccc2n1 (stereo not drawn)
-7.2	Nc1ncnc2ccc([S+]([O-])c3ccc4ccccc4c3)cc12 (stereo not drawn)
-12.4	Nc1nc(N)c2cc(S(=O)(=O)c3ccc4ccccc4c3)ccc2n1
-7.4	Nc1nc(O)c2c(Sc3ccc4ccccc4c3)cccc2n1
-6.2	Oc1nc(S)nc2ccc(Sc3ccc4ccccc4c3)cc12
-5.8	Nc1ncnc2ccc(S(=O)(=O)c3ccc4ccccc4c3)cc12
-6	Sc1nc(S)c2cc(Sc3ccc4ccccc4c3)ccc2n1
-9.3	Nc1nc(S)c2cc(Sc3ccc4ccccc4c3)ccc2n1
-10.9	Nc1nc(N)c2c(Sc3ccc4ccccc4c3)cccc2n1
-6.9	Nc1nc(O)nc2ccc(Sc3ccc4ccccc4c3)cc12
